Calls of active or inactive are those of the source. The rule behind the calls is not given here.
Tests used:
[1] = molecular target: T1, Epidermal growth factor receptor (Homo sapiens, UniProt P00533); test: Inhibition of EGFR (unknown origin) mediated phosphorylation incubated for 2 hrs in presence of ATP by Z-LYTE assay
A549 [2] = test: Downregulation of KRAS gene expression in human A549 cells by SYBR green dye based qPCR analysis; type: functional, cell-based
A549 [3] = test: Downregulation of MAP2K gene expression in human A549 cells by SYBR green dye based qPCR analysis; type: functional, cell-based
A549 [4] = test: Downregulation of EGFR gene expression in human A549 cells by SYBR green dye based qPCR analysis; type: functional, cell-based
A549 [5] = test: Inhibition of oxidative stress in human A549 cells assessed as reduction in ROS production at 1 to 5 uM by DCFH-DA staining based microplate reader analysis; type: functional, cell-based; settings: dose 1-5 µM
A549 [6] = test: Induction of mitochondrial membrane hyperpolarization in human A549 cells at 1 to 5 uM by JC-1 staining based fluorescence microplate reader assay; type: functional, cell-based; settings: dose 1-5 µM
[7] = molecular target: T1, Epidermal growth factor receptor; settings: dose 200.0 nM, time 2.0 hrs
A549 [8] = test: cells; settings: Homo sapiens, A549, 48 h
MCF7 = test: cells; settings: Homo sapiens, MCF7, 48 h
MDA-MB-231 = test: cells; settings: Homo sapiens, MDA-MB-231, 48 h

T1 sequence (P00533 whole entry): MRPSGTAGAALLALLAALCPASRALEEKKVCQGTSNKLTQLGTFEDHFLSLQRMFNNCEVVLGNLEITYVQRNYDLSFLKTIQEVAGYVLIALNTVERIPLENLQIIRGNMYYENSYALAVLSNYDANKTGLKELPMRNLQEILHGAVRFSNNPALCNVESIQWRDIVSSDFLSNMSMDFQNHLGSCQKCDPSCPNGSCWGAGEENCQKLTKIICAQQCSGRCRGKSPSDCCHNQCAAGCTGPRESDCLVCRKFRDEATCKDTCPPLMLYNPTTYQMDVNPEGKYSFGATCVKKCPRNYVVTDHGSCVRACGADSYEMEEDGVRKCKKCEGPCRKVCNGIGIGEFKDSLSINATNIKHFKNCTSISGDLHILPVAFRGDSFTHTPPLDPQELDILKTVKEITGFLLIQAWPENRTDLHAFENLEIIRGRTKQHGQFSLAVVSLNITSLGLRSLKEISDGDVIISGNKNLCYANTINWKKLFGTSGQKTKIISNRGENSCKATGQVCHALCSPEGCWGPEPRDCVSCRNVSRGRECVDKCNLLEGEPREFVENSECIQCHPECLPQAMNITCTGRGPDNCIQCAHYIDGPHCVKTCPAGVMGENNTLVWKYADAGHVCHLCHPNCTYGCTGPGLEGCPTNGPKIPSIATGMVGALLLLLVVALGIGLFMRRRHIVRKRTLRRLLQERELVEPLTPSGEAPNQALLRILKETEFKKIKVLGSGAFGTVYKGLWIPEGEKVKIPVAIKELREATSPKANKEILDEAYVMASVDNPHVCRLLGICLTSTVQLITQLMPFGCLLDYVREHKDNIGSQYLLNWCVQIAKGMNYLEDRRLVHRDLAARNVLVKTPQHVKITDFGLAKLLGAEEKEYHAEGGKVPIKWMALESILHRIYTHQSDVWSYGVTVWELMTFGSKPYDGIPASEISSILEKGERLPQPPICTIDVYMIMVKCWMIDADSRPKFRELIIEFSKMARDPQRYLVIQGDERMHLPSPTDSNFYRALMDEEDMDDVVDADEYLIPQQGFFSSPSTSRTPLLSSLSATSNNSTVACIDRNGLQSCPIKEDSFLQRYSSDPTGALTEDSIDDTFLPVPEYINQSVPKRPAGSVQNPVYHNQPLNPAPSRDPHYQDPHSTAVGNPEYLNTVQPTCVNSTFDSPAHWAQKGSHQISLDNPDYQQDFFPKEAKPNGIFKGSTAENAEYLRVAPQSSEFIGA

Compound | IC50 [1] [µM] | Activity (A549 [2]) | Activity (A549 [3]) | Activity (A549 [4]) | inhibition (A549 [5]) | Activity (A549 [6]) | inhibition [7] [%] | IC50 (A549 [8]) [µM] | IC50 (MCF7) [µM] | IC50 (MDA-MB-231) [µM]
COc1cccc(/C=N/c2c(C#N)nc3c(-c4cc(OC)c(OC)c(OC)c4)nc4ccccc4n23)c1 | 0.0759 | Active | Active | Active | Active | Active | > 50 | 3.53 | 13.6 | 5.77
COc1cc(-c2nc3ccccc3n3c(/N=C/c4ccc(Cl)cc4)c(C#N)nc23)cc(OC)c1OC | – | – | – | – | – | – | – | 4.43 | 3.82 | 5.94
COc1cc(-c2nc3ccccc3n3c(/N=C/c4ccc(N(C)C)cc4)c(C#N)nc23)cc(OC)c1OC | – | – | – | – | – | – | – | 13.2 | 24 | 6.41
COc1cc(-c2nc3ccccc3n3c(/N=C/c4ccncc4)c(C#N)nc23)cc(OC)c1OC | – | – | – | – | – | – | – | 16.5 | 13.1 | 8.88
COc1cc(-c2nc3ccccc3n3c(/N=C/c4cccnc4)c(C#N)nc23)cc(OC)c1OC | – | – | – | – | – | – | – | 4.27 | 23.9 | 8.66
COc1cc(-c2nc3ccccc3n3c(/N=C/c4c[nH]c5ccccc45)c(C#N)nc23)cc(OC)c1OC | – | – | – | – | – | – | – | > 25 | 8.99 | > 25
COc1cc(-c2nc3ccccc3n3c(/N=C/c4ccsc4)c(C#N)nc23)cc(OC)c1OC | – | Active | Active | Active | Active | Active | – | 1.34 | 14.3 | > 25
COc1cc(-c2nc3ccccc3n3c(/N=C/c4cc(F)ccc4[N+](=O)[O-])c(C#N)nc23)cc(OC)c1OC | – | – | – | – | – | – | – | 3.25 | 9.99 | 11.4
C#Cc1cccc(Nc2ncnc3cc(OCCOC)c(OCCOC)cc23)c1 | – | Active | Active | Active | – | – | – | – | – | –
